Measured values reported in US3950527A, “N-[ω-(4'-(3"-indolyl)-piperidino)-alkyl]-benzamides” (Roussel-UCLAF, priority 1974, dated 1976).

Experiments:
[1] = test system: mouse; assay: Chimney Test (neurosedative activity); type: in vivo; conditions: ip, 0.5 h, mice, intraperitoneal, 30 minutes after administration, read-out: DE50, Chimney Test
Protocol: This test consisted of placing a mouse in the end of a glass tube 30 cm long with a diameter adapted to the size of the mouse. The tube was straightened vertically in a rapid manner with the head of the mouse at the base. The normal uprighting time for the mouse in the tube was less than 30 seconds. The test was conducted 30 minutes after intraperitoneal administration of the test product and the DE50 dose was determined and is reported in Table I.

[2] = Antagonism to toxicity of amphetaminic compounds; type: in vivo; conditions: Mus musculus, ip; male mice, intraperitoneal 30 minutes before 15 mg/kg i.p. dexamphetamine sulfate; group mortality at 24 hours; read-out: DE50, Antagonism to toxicity of amphetamines
Protocol: C. Antagonism to toxicity of amphetaminic compounds
This test was determined on groups of 10 male mice in a crystallizer with a 20 cm diameter and a 9 cm height covered with a grill. The animals received an intraperitoneal injection of 15 mg/kg of dexamphetamine sulfate 30 minutes after intraperitoneal administration of the test product. The group mortality was counted 24 hours after the injection of dexamphetamine sulfate and the DE50 dose was determined.

[3] = test system: mouse; assay: Traction Test (neurosedative activity); type: in vivo; conditions: ip, 0.5 h, mice, intraperitoneal, 30 minutes after administration, dose at which 50% of the animals do not reestablish themselves in 5 seconds, read-out: DE50, Traction Test
Description: This test consisted of suspending a mouse by the front paws from a horizontal metal wire and in a time of less than 5 seconds, the normal mouse will effect a reestablishment by managing to place at least one hind paw on the wire. […]

[4] = Acute toxicity; conditions: mouse, in vivo, ip; mice, intraperitoneal, mortality after 48 hours; read-out: DL50, acute toxicity
Protocol: The acute toxicity was determined by intraperitoneal administration of the test compounds to mice in increasing doses and determination of the mortality after 48 hours to determine the DL50 dose.

[5] = Cataleptic Power; type: in vivo, young rats; conditions: for cataleptic activity (in words): rat, in vivo
Protocol: D. Cataleptic Power This test is described by Boissier et al. [Therapie., Vol. 18 (1963), p. 1257-1277] and was effected on young rats by crossing the homolateral paws and noting the intensity of catalepsy. The test product was intraperitoneally administered and the DE50 was formed to be greater than 60 mg/kg.

[6] = Antagonism to vomitting provoked by apomorphine; type: in vivo; conditions: Canis lupus familiaris, sc, 0.5 h; dogs, subcutaneous 30 minutes before 0.1 mg/kg s.c. apomorphine hydrochloride; vomitting counted over one half hour; read-out: DE50, antagonism to vomitting provoked by apomorphine
Protocol: C. Antagonism to vomitting provoked by apomorphine
This test was effected on dogs as reported by Chen et al. [J. Pharmac. exp. Therap. Vol. 93 (1950), p. 245-250]. The test product was subcutaneously administered 30 minutes before subcutaneous administration of 0.1 mg/kg of apomorphine hydrochloride. […] The cross tests were repeated after 8 days on lots of 2 dogs and the DE50 dose was determined to be 0.005 mg/kg.

[7] = Antipsychotic activity, overall conclusion from the tests on the product of Example 2; conditions: in vivo
Protocol: This test consisted of using groups of 5 rats which were placed in individual grill cages. The rats received intraperitoneally 8 mg/kg of dexamphetamine sulfate 30 minutes after intraperitoneal administration of the test products and the test used controls and treated animals. The rating scale was that described by Halliwel et al. [Brit. J. Pharmacol., Vol. 23 (1964), p. 330-350] and the DE50 of the product was […].
(§1) This test used groups of 5 male rats in a test inspired by Janssen et al. [Arzn. Forsch., Vol. 15 (1965), p. 104-117 and Vol. 17 (1967), p. 841-854] with each rat in an individual grill cage. Each animal received an intravenous injection in the vein of the penis of 1.5 mg of apomorphine hydrochloride 30 minutes after intraperitoneal administration of the test compound. The animals, control and treated, were observed 1,5,10 and 15 minutes after the last injection and the stereotype movements of the buccal sphere were evaluated for their intensity on a scale of 0 to 3 as by Boissier et al. [Therapie., Vol. 25 (1970), p. 939-949]. The height of the test was determined and the DE50 dose was ascertained to be 10 mg/kg.
This test was effected on dogs as reported by Chen et al. [J. Pharmac. exp. Therap. Vol. 93 (1950), p. 245-250]. […] The cross tests were repeated after 8 days on lots of 2 dogs and the DE50 dose was determined to be 0.005 mg/kg.

[8] = Antagonism to stereotypes provoked by apomorphine; type: in vivo; conditions: Rattus norvegicus, ip; male rats, intraperitoneal 30 minutes before 1.5 mg intravenous apomorphine hydrochloride; read-out: DE50, antagonism to stereotypes provoked by apomorphine
Protocol: B. Antagonism to sterotypes provoked by apomorphine
as §1

[9] = listed as acid succinate of N-[β-(4'-(3"-indolyl)-piperidino)-ethyl]-4-fluoro-benzamide

SMILES | ED50 [1] [mg/kg] | ED50 [2] [mg/kg] | ED50 [3] [mg/kg] | LD50 at 48 h [4] [mg/kg] | ED50 ([5]; Rattus norvegicus, ip, young rats, intraperitoneal, crossing the homolateral paws, read-out: DE50, cataleptic power) [mg/kg] | cataleptic activity (in words) [5] | cataleptic activity (in words) [5, 9] | ED50 [6] [mg/kg] | antipsychotic activity (in words) [7] | antipsychotic activity (in words) [7, 9] | ED50 [8] [mg/kg]
O=C(NCCN1CCC(c2c[nH]c3ccccc23)CC1)c1ccccc1 [Example 1, N-[β-(4'-(3"-indolyl)-piperidino)-ethyl]-benzamide] | 7 | 3 | 18 | 300 |  |  |  |  |  |  | 
O=C(NCCN1CCC(c2c[nH]c3ccccc23)CC1)c1ccc(F)cc1 [Example 2, N-[β-(4'-(3"-indolyl)-piperidino)-ethyl]-p-fluoro-benzamide acid succinate] | 2 | 0.3 | 6.5 | 125 | > 60 | practically devoid of cataleptigenic activity | without cataleptic properties | 0.005 | important antipsychotic activity | antipsychotic activity | 10
O=C(NCCCN1CCC(c2c[nH]c3ccccc23)CC1)c1ccc(F)cc1 [Example 3, N-[γ-(4'-(3"-indolyl)-piperidino)-propyl]-p-fluorobenzamide] | 5 | 8 | 20 | 60 |  |  |  |  |  |  | 
COc1cc(F)ccc1C(=O)NCCN1CCC(c2c[nH]c3ccccc23)CC1 [Example 4, N-[β-(4'-(3"-indolyl)-piperidino)-ethyl]-p-fluoro-o-methoxy-benzamide] | 4.5 | 0.35 | 8.5 | > 800 |  |  |  |  |  |  | 
COc1ccc2c(C3CCN(CCNC(=O)c4ccc(F)cc4)CC3)c(C)[nH]c2c1 [Example 5, N-[β-(4'-(2"-methyl-6"-methoxy-3"-indolyl)-piperidino)-ethyl]-p-fluoro-benzamide] | 17 | 3 | 25 | 400 |  |  |  |  |  |  | 
COc1cc(N)c(Cl)cc1C(=O)NCCN1CCC(c2c[nH]c3ccccc23)CC1 [Example 7, N-[β-(4'-(3"-indolyl)-piperidino)-ethyl]-2-methoxy-4-amino-5-chloro-benzamide] |  |  |  | > 800 |  |  |  |  |  |  | 
COc1ccc(S(N)(=O)=O)cc1C(=O)NCCN1CCC(c2c[nH]c3ccccc23)CC1 [Example 8, N-[β-(4'-(3"-indolyl)-piperidino)-ethyl]-2-methoxy-5-sulfamoyl-benzamide] |  |  |  | 800 |  |  |  |  |  |  | 
